Data set [1] deals with human first-trimester placental explants (CTB).
For data set [2], the system named is human placental explants (syncytiotrophoblast). In words: Peptide-binding assay with human placental explants. Type of data set: cell-based. The settings on record: peptide 20 μM, 0 to 3 hours.
Data set [3] concerns mouse placenta (maternofetal interface). Type of data set: in vivo, BALB/c mice. The settings on record: 200 μg, tail vein, cardiac perfusion.

Residues, ends and D or L forms follow the SMILES beside them.

For Cys-Gly-Lys-Arg-Lys [CGKRK], the “basal rates of CTB proliferation (Ki67)” value in data set [1] is “did not alter”.

For FAM-ARALPSQRSR [reference compound], in data set [2], the “binding to human placenta (first-trimester and term explants)” value is given as “did not bind to the syncytium of human placenta or to other cellular components”. The “binding at the murine maternofetal interface” value in data set [3] (pregnant mice E11.5 to E17.5, 3 hours, fluorescence microscopy, n = 3 placentas from n = 4 mice) is reported as “did not target the maternofetal interface”.

As to “Cys-Arg-Gly-Asp-Lys-Gly-Pro-Asp-Cys (disulfide) [iRGD]”, in data set [1], the “basal rates of CTB proliferation (Ki67)” value is given as “did not alter” and the “rate of CTB apoptosis (M30)” value is recorded as “modestly reduced”.

With `N=C(N)NCCC[C@H](NC(=O)[C@H](CCCCN)NC(=O)CNC(=O)[C@H](CS)NC(=O)c1ccc2c(c1)C(=O)OC21c2ccc(O)cc2Oc2cc(O)ccc21)C(=O)N[C@@H](CCCCN)C(=O)O` [FAM-CGKRK] (HELM PEPTIDE1{[O=C1OC2(c3ccc(O)cc3Oc3cc(O)ccc32)c2ccc(C(=O)[*:2])cc21].C.G.K.R.K}$$$$V2.0), in data set [3] (pregnant mice, 3 hours, confocal microscopy (fig. S1)), the “accumulation in maternal organs” value is “do not accumulate in maternal organs of pregnant mice”.
